Columns and labels:
Format in all cases: in vivo
[1] = tested on: galium (catchweed bedstraw, Galium aparine); assay: Test C pre-/postemergence: galium
How it was run: (§1)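 Visual injury scored 0–100 (100 = complete control) against untreated controls after 13–15 greenhouse days. Surfactant-containing solvent formulations applied either to soil after sowing (loam/sand) or over 1- to 4-leaf plants, 2–18 cm tall.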

[2] = tested on: crabgrass, large (large crabgrass, Digitaria sanguinalis); assay: Test A pre-/postemergence: crabgrass, large
How it was run: (§2)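 Visual 0–100 injury ratings (0 no effect, 100 complete control) taken about ten days after treatment, relative to untreated controls. Preemergence treatment was a directed soil spray; postemergence plants were 2–10 cm tall at one- to two-leaf stage. Soil: loam/sand blend.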

[3] = tested on: velvetleaf (Abutilon theophrasti); assay: Test C pre-/postemergence: velvetleaf
How it was run: as §1

[4] = tested on: velvetleaf (Abutilon theophrasti); assay: Test A pre-/postemergence: velvetleaf
How it was run: as §2

[5] = tested on: nutsedge, yellow (yellow nutsedge, Cyperus esculentus); assay: Test C pre-/postemergence: nutsedge, yellow
How it was run: as §1

[6] = tested on: foxtail, giant (giant foxtail, Setaria faberii); assay: Test C pre-/postemergence: foxtail, giant
How it was run: as §1

[7] = tested on: pigweed (Amaranthus retroflexus); assay: Test C pre-/postemergence: pigweed
How it was run: as §1

[8] = tested on: winter wheat (Triticum aestivum); assay: Test C pre-/postemergence: winter wheat
How it was run: as §1

[9] = tested on: foxtail, giant (giant foxtail, Setaria faberii); assay: Test A pre-/postemergence: foxtail, giant
How it was run: as §2

[10] = tested on: lambsquarters (Chenopodium album); assay: Test C pre-/postemergence: lambsquarters
How it was run: as §1

[11] = tested on: blackgrass (Alopecurus myosuroides); assay: Test C pre-/postemergence: blackgrass
How it was run: as §1

soybean (Glycine max) = assay: Test C pre-/postemergence: soybean
How it was run: as §1

[12] = Postemergence, 31 g ai/ha, scale 0 to 100 (0 no effect, 100 complete control)
[13] = Postemergence, 62 g ai/ha, scale 0 to 100 (0 no effect, 100 complete control)
[14] = Postemergence, 125 g ai/ha, scale 0 to 100, 0 no effect, 100 complete control
[15] = Postemergence, 250 g ai/ha, scale 0 to 100
[16] = Preemergence, 31 g ai/ha, scale of 0 to 100, 0 is no effect, 100 is complete control
[17] = Preemergence, 62 g ai/ha, scale of 0 to 100, 0 is no effect, 100 is complete control
[18] = Preemergence, 125 g ai/ha, scale 0 to 100, 0 no effect, 100 complete control
[19] = Preemergence, 250 g ai/ha, scale 0 to 100, 0 no effect, 100 complete control
[20] = Postemergence, 125 g ai/ha, 0 to 100 scale, 0 is no effect, 100 is complete control
[21] = Postemergence, 500 g ai/ha, visual rating on 0 to 100 scale (0 no effect, 100 complete control), approximately ten days
[22] = Preemergence, 125 g ai/ha, 0 to 100 scale where 0 is no effect and 100 is complete control
[23] = Preemergence, 500 g ai/ha, 0 to 100 scale (0 no effect, 100 complete control)

CCCc1nn(-c2ccc(F)cc2)nc1Cc1ccnc(C(F)(F)F)c1 [Compound 153]
Plant response rating, Galium [1, 12]: 60
Plant response rating, Galium [1, 13]: 65
Plant response rating, Galium [1, 14]: 85
Plant response rating, Galium [1, 15]: 85
Plant response rating, Galium [1, 16]: 80
Plant response rating, Galium [1, 17]: 98
Plant response rating, Galium [1, 18]: 100
Plant response rating, Galium [1, 19]: 100
Plant response rating, Crabgrass, Large [2, 20]: 100
Crabgrass, Large plant response rating [2, 21]: 100
Plant response rating, Crabgrass, Large [2, 22]: 100
Plant response rating, Crabgrass, Large [2, 23]: 100
Plant response rating, Velvetleaf [3, 12]: 50
Plant response rating, Velvetleaf [3, 13]: 60
Plant response rating, Velvetleaf [3, 14]: 65
Plant response rating, Velvetleaf [3, 15]: 95
Plant response rating, Velvetleaf [3, 17]: 85
Plant response rating, Velvetleaf [3, 18]: 95
Plant response rating, Velvetleaf [3, 19]: 100
Plant response rating, Velvetleaf [4, 20]: 100
Velvetleaf plant response rating [4, 21]: 100
Plant response rating, Velvetleaf [4, 22]: 80
Plant response rating, Velvetleaf [4, 23]: 100
Plant response rating, Nutsedge, Yellow [5, 12]: 10
Plant response rating, Nutsedge, Yellow [5, 13]: 10
Plant response rating, Nutsedge, Yellow [5, 14]: 15
Plant response rating, Nutsedge, Yellow [5, 15]: 15
Plant response rating, Nutsedge, Yellow [5, 16]: 0
Plant response rating, Nutsedge, Yellow [5, 17]: 0
Plant response rating, Nutsedge, Yellow [5, 18]: 5
Plant response rating, Foxtail, Giant [6, 12]: 45
Plant response rating, Foxtail, Giant [6, 13]: 80
Plant response rating, Foxtail, Giant [6, 14]: 90
Plant response rating, Foxtail, Giant [6, 15]: 95
Plant response rating, Foxtail, Giant [6, 16]: 100
Plant response rating, Foxtail, Giant [6, 17]: 100
Plant response rating, Foxtail, Giant [6, 18]: 100
Plant response rating, Foxtail, Giant [6, 19]: 100
Plant response rating, Pigweed [7, 12]: 95
Plant response rating, Pigweed [7, 13]: 95
Plant response rating, Pigweed [7, 14]: 98
Plant response rating, Pigweed [7, 15]: 98
Plant response rating, Pigweed [7, 16]: 100
Plant response rating, Pigweed [7, 17]: 100
Plant response rating, Pigweed [7, 18]: 100
Plant response rating, Pigweed [7, 19]: 100
Plant response rating, Wheat [8, 12]: 10
Plant response rating, Wheat [8, 13]: 30
Plant response rating, Wheat [8, 14]: 30
Plant response rating, Wheat [8, 15]: 30
Plant response rating, Wheat [8, 17]: 35
Plant response rating, Wheat [8, 18]: 60
Plant response rating, Wheat [8, 19]: 60
Plant response rating, Foxtail, Giant [9, 20]: 90
Foxtail, Giant plant response rating [9, 21]: 100
Plant response rating, Foxtail, Giant [9, 22]: 100
Plant response rating, Foxtail, Giant [9, 23]: 100
Plant response rating, Lambsquarters [10, 12]: 95
Plant response rating, Lambsquarters [10, 13]: 95
Plant response rating, Lambsquarters [10, 14]: 95
Plant response rating, Lambsquarters [10, 15]: 95
Plant response rating, Lambsquarters [10, 16]: 95
Plant response rating, Lambsquarters [10, 17]: 100
Plant response rating, Lambsquarters [10, 18]: 100
Plant response rating, Lambsquarters [10, 19]: 100
Plant response rating, Blackgrass [11, 12]: 55
Plant response rating, Blackgrass [11, 13]: 60
Plant response rating, Blackgrass [11, 14]: 70
Plant response rating, Blackgrass [11, 15]: 90
Plant response rating, Blackgrass [11, 16]: 90
Plant response rating, Blackgrass [11, 17]: 90
Plant response rating, Blackgrass [11, 18]: 90
Plant response rating, Blackgrass [11, 19]: 90
Plant response rating, Soybean (soybean (Glycine max); [12]): 55
Plant response rating, Soybean (soybean (Glycine max); [13]): 70
Plant response rating, Soybean (soybean (Glycine max); [14]): 70
Plant response rating, Soybean (soybean (Glycine max); [15]): 85
Plant response rating, Soybean (soybean (Glycine max); [16]): 20
Plant response rating, Soybean (soybean (Glycine max); [17]): 20
Plant response rating, Soybean (soybean (Glycine max); [18]): 35
Plant response rating, Soybean (soybean (Glycine max); [19]): 35

Reference: patent US9302999B2, “Substituted triazoles as herbicides” (E. I. DU PONT DE NEMOURS AND COMPANY, priority 2012, dated 2016)
